Here are results for two molecules from patent US7998991B2, “Neurotherapeutic treatment for sexual dysfunction” (Revaax Pharmaceuticals, LLC, priority 2001, dated 2011).

In series [1] the test system is prefrontal cortex and nucleus accumbens. To be noted: Cartmell et al., 2000b; Hertel et al. 1997; cited from earlier work.
Series [2] has as its system cotton-top tamarin (Saguinus oedipus). Put plainly: Novel object test for anxiolytic activity in cotton-top tamarins. It counts as in vivo. To be noted: oral 1 mg/kg, three doses a day for two days. The protocol: Eight male/female pairs of tamarins with long standing pair bonds were tested following oral treatments of CLAV and vehicle (VEH) control. There were no offspring since males were vasectomized. Both members of a pair received the same treatments at the same times. Each animal served as its own control being tested both with CLAV or VEH one week apart. The treatment schedule was counter-balanced. CLAV was dissolved in water and dispensed onto a small cookie in a volume of 100 μl. A single CLAV cookie was given to each member of a pair at an approximate dose of 1 mg/kg body weight. Animals were given three CLAV cookies each day for two consecutive days. The 1st cookie was given at 8:00 AM prior to the morning feeding, the 2nd at 11:00 AM prior to the noon feeding and the 3rd at 2:00 PM prior to the late afternoon snack. All animals were scored for anti-anxiety activity 60 min after the 3rd treatment on the second day.
Two observers blind to the treatment independently scored behavioral activity. To elicit anxious/stressful behavior a novel object was placed into the home cage. A different novel object was used for each test session and the object presentation was counter-balanced. Following the presentation of the novel object animals were scored for a duration of 15 min for: 1) latency to approach and latency to touch the object, 2) time spent in contact or proximity with the object, 3) face and head movement (frowns, head shakes and head cocks that reflect tension), 4) scratching (a validated measure of anxiety in macaques), 5) piloerection (autonomic stress response), and 6) visual scanning (nervous vigilance).

The test system is the same in series [3]. Put plainly: Scoring of erections, mounts and female solicitations in cotton-top tamarins. The format is in vivo. To be noted: oral 1 mg/kg.
Series [4] is described as follows: Pharmacokinetic assessment of CLAV run by IVEDCO. To be noted: from plasma 2.5 μg/ml and CSF/plasma ratio 0.25. The protocol: This treatment regimen of three doses each day for two consecutive days was chosen to acclimate the animals to the treatment procedure (day 1) and to achieve steady-state blood concentration before testing (day 2). A pharmacokinetic assessment of CLAV was run by IVEDCO (Irving Tex.) which estimated an oral dose of 1 mg/kg every three hrs would produce steady-state levels yielding an average plasma concentration of 2.5 μg/ml at the time of testing. Since the CSF/plasma ratio is 0.25 the estimated concentration in the brain would be around 0.3 μM. Given the rate of clearance of CLAV, treatments from day 1 should not have contributed to blood levels of drug on day 2.

Series [5] relates to nucleus accumbens. Put plainly: Microdialysis of extracellular neurotransmitter levels after IP CLAV. It counts as in vivo, Sprague Dawley rats. The protocol: To test this hypothesis, extracellular neurotransmitter levels in the area of the nucleus accumbens were assessed with microdialysis following CLAV treatment. The accumbens is part of the limbic forebrain best now for its association with the pathophysiology of schizophrenia and drug addiction but also thought to be involved in sensitization to early life trauma leading to the anxiety disorder PTSD or post traumatic stress disorder ([…] and Bremner 1999). Ten male, Sprague Dawley rats were anesthetized with sodium pentobarbital (50 mg/kg) and implanted with a unilateral microdialysis guide cannula aimed at the nucleus accumbens. Two days after recovery from surgery a microdialysis probe (2 mm) was lowered to the area and connected to an infusion pump through Tygon tubing. The dialysate was artificial CSF at pH 7.4 delivered at a flow rate of 2 μl/min. The first 120 min of dialysate will be discarded. Thereafter, samples were collected at 30 min intervals prior to and following IP CLAV treatment (10 μg/kg). Samples were collected into microfuge tubes containing 5 μl of 0.16 N perchloric acid to stabilize catecholamines. At the end of the study, animals were sacrificed and the brains prepared for histology to verify the site of the microdialysis probe.

Series [6] relates to monoamine transporters. Put plainly: Binding of CLAV to monoamine transporters.
The target of series [7] is T1, monoamine oxidase A (Homo sapiens, UniProt P21397).
T1 sequence (P21397 1-527): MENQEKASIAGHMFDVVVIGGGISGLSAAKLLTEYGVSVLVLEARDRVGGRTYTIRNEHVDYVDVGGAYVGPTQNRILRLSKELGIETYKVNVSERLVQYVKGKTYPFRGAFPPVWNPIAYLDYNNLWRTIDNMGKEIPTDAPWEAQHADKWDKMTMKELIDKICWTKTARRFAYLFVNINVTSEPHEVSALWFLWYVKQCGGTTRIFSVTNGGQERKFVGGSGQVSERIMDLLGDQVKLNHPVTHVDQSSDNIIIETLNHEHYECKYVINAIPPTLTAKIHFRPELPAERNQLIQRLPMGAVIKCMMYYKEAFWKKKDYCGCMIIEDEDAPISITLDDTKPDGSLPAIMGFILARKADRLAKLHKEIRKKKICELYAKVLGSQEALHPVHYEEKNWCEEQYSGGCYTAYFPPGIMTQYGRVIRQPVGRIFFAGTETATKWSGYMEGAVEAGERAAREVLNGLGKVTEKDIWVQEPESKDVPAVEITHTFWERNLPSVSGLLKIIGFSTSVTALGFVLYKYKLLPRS
Put plainly: Binding of CLAV to monoamine oxidase A.

For series [8], the system named is well known signaling receptors or transporters. Briefly: Binding of CLAV to well known signaling receptors or transporters.

Consider `Cc1nc2n(c(=O)c1CCN1CCC(c3noc4cc(F)ccc34)CC1)CCCC2` [risperidone], for which, in series [1], the “dopamine and serotonin neurotransmission in the prefrontal cortex and nucleus accumbens” value was “increase”.
`O=C(O)[C@H]1/C(=C/CO)O[C@@H]2CC(=O)N21` [CLAV, clavulanic acid]: in series [2], the “latency to approach the novel object, CLAV vs VEH” value is reported as “no significant difference”; the “latency to touch the novel object, CLAV vs VEH” value is “no significant difference”; the “time spent in proximity to the object, CLAV vs VEH” value was “Neither was there any difference”. Besides, the “combined measures of anxious/nervous behaviors (3, 4, 5 & 6)” value in series [2] (scored 15 min, 60 min after 3rd treatment on day 2, p<0.05 vs VEH) is listed as 12.7+4.8. In addition, in series [3] (eight females, three doses a day for two days), the “females showing solicitation behaviors” value is reported as “Two of the eight”. The “males showing at least one erection in 15 min” value in series [3] (eight males, three doses a day for two days) is “All eight”. For the same molecule, in series [3] (males, three doses a day for two days), the “mean erections in 15 min” value is given as 2.25 erections in 15 min. The same molecule showed a rate of erections in series [3] (males, p<0.02 vs VEH) of 9.0 erections per hour. The “mounting behavior, CLAV vs VEH” value in series [3] (three doses a day for two days) was “no significant difference”. Also, the “estimated concentration in the brain” value in series [4] is recorded as “around 0.3 μM”. In addition, in series [5] (IP 10 μg/kg, AC-1 to AC-5), the DOPAC levels result was “only rose in two cases”. Also, the “changes in dopamine and serotonin neurotransmission, probe outside the nucleus accumbens” value in series [5] (IP 10 μg/kg, lateral ventricle, bed nucleus of stria terminalis, head of the caudate, ventrolateral thalamus) is recorded as “little if any changes”. Besides, in series [5] (animal AC-1, IP 10 μg/kg), the “dopamine metabolite 3,4-dihydroxyphenylacetic acid (DOPAC) over time” value is reported as “robust increase”, the “dopamine metabolite homovanillic acid (HVA) over time” value is recorded as “robust increase”, the dopamine over time entry is “modest decrease” and the “extracellular levels of serotonin over time” value is “increase”. In addition, the “serotonin metabolite 5-hydroxyindoleacetic acid (HIAA) over time” value in series [5] (animal AC-1, IP 10 μg/kg) was “robust increase”. Besides, the “binding to monoamine transporters” value in series [6] is given as “Neither the monoamine transporters nor the degradative enzyme monoamine oxidase A show binding”. The “binding to monoamine oxidase A” value in series [7] is reported as “Neither the monoamine transporters nor the degradative enzyme monoamine oxidase A show binding”. For the same molecule, the “binding to well known signaling receptors or transporters” value in series [8] is “does not appear to bind”.
